From PMC8963254, “Effects of Lysine N-ζ-Methylation in Ultrashort Tetrabasic Lipopeptides (UTBLPs) on the Potentiation of Rifampicin, Novobiocin, and Niclosamide in Gram-Negative Bacteria” (Antibiotics, 2022)
Converted amounts (≈) assume the structure as drawn. Read-outs that look alike come from different tables or passages of the source. Residues, ends and D or L forms follow the SMILES beside them. *: point of attachment. Octanoyl = CCCCCCCC(=O)*

What was measured:
E. coli 94393 = assay type: cell-based, Escherichia coli; details: for MICUTBLP: UTBLP alone
Method in brief: (§1)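 Checkerboard synergy assay: antibiotic and OMP combined at varying concentrations with 5 × 10^5 CFU/mL inoculum (final), 37 °C, 18 h; growth read as turbidity at 590 nm. FICI = sum of FICs (MIC in combination / MIC alone); ≤0.5 synergistic, 0.5–4 additive, >4 antagonistic.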

E. coli ATCC 25922 = assay type: cell-based, Escherichia coli; details: for MICUTBLP: UTBLP alone
Method in brief: as §1

A. baumannii AB027 = assay type: cell-based, Acinetobacter baumannii; details: for MICUTBLP: UTBLP alone
Method in brief: as §1

A. baumannii 92247 = assay type: cell-based, Acinetobacter baumannii; details: for MICUTBLP: UTBLP alone
Method in brief: as §1

A. baumannii ATCC 17978 = assay type: cell-based, Acinetobacter baumannii; details: for MICUTBLP: UTBLP alone
Method in brief: as §1

K. pneumoniae 113250 [1] = assay type: cell-based, Klebsiella pneumoniae; details: for MICUTBLP: UTBLP alone
Method in brief: as §1

E. cloacae 118564 = test: microbe, parasite or virus in culture; assay type: cell-based, Enterobacter cloacae; details: 118564, 18 h
Method in brief: (§2)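 Turbidity at 590 nm defined growth, from which the MIC was taken. Cultures at a final density of 5 × 10^5 CFU/mL were exposed to a range of compound levels at 37 °C for 18 h in a CLSI-based microdilution format.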

E. faecium ATCC 27270 [2] = assay type: cell-based, Enterococcus faecium; details: ATCC 27270, 18 h
Procedure: The in vitro antibacterial activity of the UTBLPs was assessed against wild-type and clinically isolated bacterial strains. To obtain the MIC of the compounds, the microbroth dilution susceptibility assay was performed according to the Clinical and Laboratory Standards Institute (CLSI, Wayne, PA, USA) guidelines and as previously described. Briefly, the compounds at varying concentrations were incubated with bacterial inoculum (5 × 10^5 CFU/mL final concentration) at 37 °C for 18 h. Growth in the form of turbidity was confirmed using an EMax Plus microplate reader (Molecular Devices, San Jose, CA, USA) at 590 nm.

K. pneumoniae 113250 [3] = test: microbe, parasite or virus in culture; assay type: cell-based, Klebsiella pneumoniae; details: 113250, 18 h
Method in brief: as §2

S. aureus ATCC 29213 = assay type: cell-based, Staphylococcus aureus
Method in brief: as §1

MRSA ATCC 33592 = assay type: cell-based, Staphylococcus aureus
Method in brief: as §1

E. faecium ATCC 27270 [4] = assay type: cell-based, Enterococcus faecium
Method in brief: as §1

[5] = UTBLP in combination with novobiocin
[6] = UTBLP in combination with rifampicin
[7] = novobiocin in combination with the UTBLP
[8] = rifampicin in combination with the UTBLP
[9] = UTBLP in combination with chloramphenicol
[10] = UTBLP in combination with niclosamide
[11] = chloramphenicol in combination with the UTBLP
[12] = niclosamide in combination with the UTBLP
[13] = UTBLP alone, plate with chloramphenicol

MICUTBLP (E. coli 94393; plate with novobiocin): 32 µg/mL
MICUTBLP (E. coli 94393; plate with rifampicin): 32 µg/mL
MICUTBLP [MICcombo] (E. coli 94393; [5]): 1 µg/mL
MICUTBLP [MICcombo] (E. coli 94393; [6]): 4 µg/mL
MICantibiotic [MICcombo] (E. coli 94393; [7]): 2 µg/mL
MICantibiotic [MICcombo] (E. coli 94393; [8]): 0.125 µg/mL
MICUTBLP (E. coli ATCC 25922; plate with chloramphenicol): 64 µg/mL
MICUTBLP (E. coli ATCC 25922; plate with niclosamide): 64 µg/mL
MICUTBLP (E. coli ATCC 25922; plate with novobiocin): 64 µg/mL
MICUTBLP (E. coli ATCC 25922; plate with rifampicin): 64 µg/mL
MICUTBLP [MICcombo] (E. coli ATCC 25922; [9]): 16 µg/mL
MICUTBLP [MICcombo] (E. coli ATCC 25922; [10]): 0.5 µg/mL
MICUTBLP [MICcombo] (E. coli ATCC 25922; [5]): 1 µg/mL
MICUTBLP [MICcombo] (E. coli ATCC 25922; [6]): 2 µg/mL
MICantibiotic [MICcombo] (E. coli ATCC 25922; [11]): 0.25 µg/mL
MICantibiotic [MICcombo] (E. coli ATCC 25922; [12]): 2 µg/mL
MICantibiotic [MICcombo] (E. coli ATCC 25922; [7]): 0.5 µg/mL
MICantibiotic [MICcombo] (E. coli ATCC 25922; [8]): 0.063 µg/mL
MICUTBLP (A. baumannii AB027; plate with novobiocin): 128 µg/mL
MICUTBLP (A. baumannii AB027; plate with rifampicin): 128 µg/mL
MICUTBLP [MICcombo] (A. baumannii AB027; [5]): 1 µg/mL
MICUTBLP [MICcombo] (A. baumannii AB027; [6]): 2 µg/mL
MICantibiotic [MICcombo] (A. baumannii AB027; [7]): 0.25 µg/mL
MICantibiotic [MICcombo] (A. baumannii AB027; [8]): 0.016 µg/mL
MICUTBLP (A. baumannii 92247; plate with novobiocin): 32 µg/mL
MICUTBLP (A. baumannii 92247; plate with rifampicin): 32 µg/mL
MICUTBLP [MICcombo] (A. baumannii 92247; [5]): 1 µg/mL
MICUTBLP [MICcombo] (A. baumannii 92247; [6]): 2 µg/mL
MICantibiotic [MICcombo] (A. baumannii 92247; [7]): 0.125 µg/mL
MICantibiotic [MICcombo] (A. baumannii 92247; [8]): 0.063 µg/mL
MICUTBLP (A. baumannii ATCC 17978; plate with chloramphenicol): 64 µg/mL
MICUTBLP (A. baumannii ATCC 17978; plate with niclosamide): 64 µg/mL
MICUTBLP (A. baumannii ATCC 17978; plate with novobiocin): 64 µg/mL
MICUTBLP (A. baumannii ATCC 17978; plate with rifampicin): 64 µg/mL
MICUTBLP [MICcombo] (A. baumannii ATCC 17978; [9]): 4 µg/mL
MICUTBLP [MICcombo] (A. baumannii ATCC 17978; [10]): 0.5 µg/mL
MICUTBLP [MICcombo] (A. baumannii ATCC 17978; [5]): 2 µg/mL
MICUTBLP [MICcombo] (A. baumannii ATCC 17978; [6]): 1 µg/mL
MICantibiotic [MICcombo] (A. baumannii ATCC 17978; [11]): 32 µg/mL
MICantibiotic [MICcombo] (A. baumannii ATCC 17978; [12]): 1 µg/mL
MICantibiotic [MICcombo] (A. baumannii ATCC 17978; [7]): 0.125 µg/mL
MICantibiotic [MICcombo] (A. baumannii ATCC 17978; [8]): 0.031 µg/mL
MICUTBLP (K. pneumoniae 113250 [1]; plate with novobiocin): > 128 µg/mL
MICUTBLP (K. pneumoniae 113250 [1]; plate with rifampicin): > 128 µg/mL
MICUTBLP [MICcombo] (K. pneumoniae 113250 [1]; [5]): 16 µg/mL
MICUTBLP [MICcombo] (K. pneumoniae 113250 [1]; [6]): 8 µg/mL
MICantibiotic [MICcombo] (K. pneumoniae 113250 [1]; [7]): 1 µg/mL
MICantibiotic [MICcombo] (K. pneumoniae 113250 [1]; [8]): 0.5 µg/mL
MIC (E. cloacae 118564): > 128 µg/mL
MIC (E. faecium ATCC 27270 [2]): 32 µg/mL (≈ 35.2 µM)
MIC (K. pneumoniae 113250 [3]): > 128 µg/mL
MICUTBLP (S. aureus ATCC 29213; [13]): 64 µg/mL
MICUTBLP [MICcombo] (S. aureus ATCC 29213; [9]): 16 µg/mL
MICchloramphenicol [MICcombo] (S. aureus ATCC 29213; [11]): 2 µg/mL
MICUTBLP (MRSA ATCC 33592; [13]): 64 µg/mL
MICUTBLP [MICcombo] (MRSA ATCC 33592; [9]): 0.25 µg/mL
MICchloramphenicol [MICcombo] (MRSA ATCC 33592; [11]): 64 µg/mL
MICUTBLP (E. faecium ATCC 27270 [4]; [13]): 32 µg/mL
MICUTBLP [MICcombo] (E. faecium ATCC 27270 [4]; [9]): 8 µg/mL
MICchloramphenicol [MICcombo] (E. faecium ATCC 27270 [4]; [11]): 2 µg/mL
SMILES: CCCCCCCC(=O)NCCCC[C@H](NC(=O)CCCCCCC)C(=O)N[C@@H](CCCCN)C(=O)N[C@@H](CCCCN)C(=O)N[C@@H](CCCCN)C(=O)N[C@@H](CCCCN)C(N)=O [UTBLP 5] (Octanoyl-K(Octanoyl)KKKK-NH2)
Interpretation (E. coli 94393; UTBLP + novobiocin): Synergy (FICI ≤ 0.5 is synergistic)
Interpretation (E. coli 94393; UTBLP + rifampicin): Synergy (FICI ≤ 0.5 is synergistic)
Interpretation (E. coli ATCC 25922; UTBLP + chloramphenicol): Synergy (FICI ≤ 0.5 is synergistic)
Interpretation (E. coli ATCC 25922; UTBLP + niclosamide): Synergy (FICI ≤ 0.5 is synergistic)
Interpretation (E. coli ATCC 25922; UTBLP + novobiocin): Synergy (FICI ≤ 0.5 is synergistic)
Interpretation (E. coli ATCC 25922; UTBLP + rifampicin): Synergy (FICI ≤ 0.5 is synergistic)
Interpretation (A. baumannii AB027; UTBLP + novobiocin): Synergy (FICI ≤ 0.5 is synergistic)
Interpretation (A. baumannii AB027; UTBLP + rifampicin): Synergy (FICI ≤ 0.5 is synergistic)
Interpretation (A. baumannii 92247; UTBLP + novobiocin): Synergy (FICI ≤ 0.5 is synergistic)
Interpretation (A. baumannii 92247; UTBLP + rifampicin): Synergy (FICI ≤ 0.5 is synergistic)
Interpretation (A. baumannii ATCC 17978; UTBLP + chloramphenicol): Additive (0.5 < x ≤ 4 is additive)
Interpretation (A. baumannii ATCC 17978; UTBLP + niclosamide): Synergy (FICI ≤ 0.5 is synergistic)
Interpretation (A. baumannii ATCC 17978; UTBLP + novobiocin): Synergy (FICI ≤ 0.5 is synergistic)
Interpretation (A. baumannii ATCC 17978; UTBLP + rifampicin): Synergy (FICI ≤ 0.5 is synergistic)
Interpretation (K. pneumoniae 113250 [1]; UTBLP + novobiocin): Synergy (FICI ≤ 0.5 is synergistic)
Interpretation (K. pneumoniae 113250 [1]; UTBLP + rifampicin): Synergy (FICI ≤ 0.5 is synergistic)
Interpretation (MRSA ATCC 33592; UTBLP + chloramphenicol): Additive (0.5 < x ≤ 4 is additive)
Interpretation (E. faecium ATCC 27270 [4]; UTBLP + chloramphenicol): Additive (0.5 < x ≤ 4 is additive)
